DBAASP
Values after ≈ are worked out from the molar mass of the structure shown. Values joined by “and” are separate entries in the source; they are usually repeats but may differ in a detail not shown here. Identical values can stand only once.

Key:
Assay in all cases: ≥ marks a high value that may be exact or a test limit, other limits are often not marked, values filed in µg/mL are converted to µM
[1] = tested on: Bacillus subtilis ATCC 6633
[2] = tested on: Escherichia coli ATCC 25922
[3] = tested on: Salmonella enterica subsp. enterica serovar Enteritidis BNCC 103134
[4] = tested on: Staphylococcus aureus ATCC 25923
[5] = tested on: Acinetobacter baumannii ATCC 19606
[6] = tested on: Candida albicans ATCC 90028
[7] = tested on: Cryptococcus neoformans var. grubii H99
Escherichia coli K-12 = tested on: Escherichia coli K-12
[8] = tested on: Klebsiella pneumoniae ATCC 700603
[9] = tested on: Pseudomonas aeruginosa ATCC 27853
[10] = tested on: Staphylococcus aureus ATCC 43300
[11] = tested on: Staphylococcus aureus JE2
[12] = tested on: Escherichia coli DH5alpha
[13] = tested on: Escherichia coli NBRC 3972
[14] = tested on: Klebsiella pneumoniae NBRC 3512
[15] = tested on: Proteus vulgaris NBRC 3045
[16] = tested on: Pseudomonas aeruginosa ATCC BAA-2111
[17] = tested on: Pseudomonas aeruginosa NBRC 13275
[18] = tested on: Salmonella enterica subsp. enterica NBRC 100797
[19] = tested on: Staphylococcus aureus NBRC 13276
Staphylococcus aureus = tested on: Staphylococcus aureus
[20] = tested on: Staphylococcus epidermidis
[21] = tested on: Bacillus subtilis MTCC 14416
[22] = tested on: Enterococcus faecalis ATCC 29212
Escherichia coli MG1655 = tested on: Escherichia coli MG1655
[23] = tested on: Staphylococcus aureus MTCC 9542
Vibrio cholerae = tested on: Vibrio cholerae
[24] = tested on: Acinetobacter baumannii MTCC 9829
[25] = tested on: Alcaligenes faecalis MTCC 1937
[26] = tested on: Alkalihalobacillus alcalophilus MTCC 860
[27] = tested on: Bordetella bronchiseptica MTCC 6837
[28] = tested on: Citrobacter freundii MTCC 1658
[29] = tested on: Citrobacter koseri MTCC 1657
[30] = tested on: Corynebacterium glutamicum MTCC 2679
[31] = tested on: Enterococcus faecalis MTCC 439
[32] = tested on: Escherichia coli K12 MG1655
[33] = tested on: Haemophilus influenzae MTCC 621
[34] = tested on: Klebsiella aerogenes MTCC 111
[35] = tested on: Klebsiella oxytoca MTCC 2275
[36] = tested on: Klebsiella pneumoniae MTCC 7407
[37] = tested on: Pluralibacter gergoviae MTCC 3826
[38] = tested on: Proteus mirabilis MTCC 3158
[39] = tested on: Proteus vulgaris MTCC 1771
[40] = tested on: Pseudomonas aeruginosa MTCC 3542
[41] = tested on: Salmonella enterica MTCC 9844
[42] = tested on: Salmonella enterica subsp. enterica serovar Typhimurium ATCC 14028
[43] = tested on: Shigella boydii MTCC 11947
[44] = tested on: Shigella flexneri MTCC 1457
[45] = tested on: Staphylococcus aureus MTCC 3160
[46] = tested on: Staphylococcus haemolyticus MTCC 3383
[47] = tested on: Stenotrophomonas maltophilia MTCC 1890
[48] = tested on: Vibrio cholerae MTCC 3904

SMILES: CC(C)[C@H](NC(=O)[C@H](C)NC(=O)[C@H](CCCN=C(N)N)NC(=O)[C@H](CC(=O)O)NC(=O)[C@@H](NC(=O)[C@H](C)N)C(C)C)C(=O)O [AVDRAV]
- MIC [1]: ≥ 150 µM
- MIC [2]: 100 µM (≈ 63 µg/mL)
- MIC [3]: ≥ 150 µM
- MIC [4]: 100 µM (≈ 63 µg/mL)

SMILES: CC[C@H](C)[C@H](NC(=O)[C@@H](NC(=O)[C@H](CO)NC(=O)[C@H](C)NC(=O)[C@@H](NC(=O)[C@H](CCCN=C(N)N)NC(=O)[C@H](CCCN=C(N)N)NC(=O)[C@@H](NC(=O)[C@@H](NC(=O)[C@H](CC(=O)O)NC(=O)[C@H](Cc1ccccc1)NC(=O)[C@H](CC(C)C)NC(=O)CN)C(C)C)[C@@H](C)CC)C(C)C)C(C)C)C(=O)NCC(=O)NCC(=O)N[C@@H](CC(C)C)C(=O)O [GLFDVIRRVASVIGGL]
- MIC [5]: 19.1 µM (≈ 32 µg/mL)
- MIC [6]: 9.57 µM (≈ 16 µg/mL)
- MIC [7]: 9.57 µM (≈ 16 µg/mL)
- MIC [2]: 19.1 µM (≈ 32 µg/mL)
- MIC (Escherichia coli K-12): 19.1 µM (≈ 32 µg/mL)
- MIC [8]: > 19.1 µM
- MIC [9]: > 19.1 µM
- MIC [10]: 9.57 µM (≈ 16 µg/mL)
- MIC [11]: 9.57 µM (≈ 16 µg/mL)

SMILES: CC(C)C[C@H](NC(=O)[C@H](CCCCN)NC(=O)CNC(=O)[C@H](C)NC(=O)[C@H](CCCCN)NC(=O)[C@H](CCCCN)NC(=O)[C@H](CC(C)C)NC(=O)[C@H](CC(C)C)NC(=O)[C@H](CCCCN)NC(=O)CNC(=O)[C@H](C)NC(=O)[C@H](CCCCN)NC(=O)[C@H](CCCCN)NC(=O)[C@H](CC(C)C)NC(=O)[C@H](CC(C)C)NC(=O)[C@@H](N)CCCCN)C(=O)N[C@@H](CC(C)C)C(=O)N[C@@H](CCCCN)C(=O)N[C@@H](CCCCN)C(=O)N[C@@H](C)C(=O)NCC(N)=O [KLLKKAGKLLKKAGKLLKKAG]
- MIC [12]: 3.12 µM and 3.1 µM
- MIC [13]: 3.12 µM and 3.1 µM
- MIC [14]: 0.716 µM (≈ 1.6 µg/mL)
- MIC [15]: ≥ 100 µM
- MIC [16]: 1.39 µM (≈ 3.1 µg/mL)
- MIC [17]: 1.56 µM and 0.716 µM
- MIC [18]: 1.6 µM (≈ 3.57 µg/mL)
- MIC [19]: 5.59 µM (≈ 12.5 µg/mL)
- MIC (Staphylococcus aureus): 12.5 µM (≈ 27.9 µg/mL)
- MIC [20]: 1.56 µM (≈ 3.48 µg/mL)

SMILES: CC[C@H](C)[C@@H]1NC(=O)[C@H](CCCCN)NC(=O)[C@@H](NC(=O)[C@H](CC(C)C)NC(=O)[C@@H](NC(=O)[C@H](CCC(N)=O)NC(=O)[C@@H]2CCCN2C(=O)[C@H](CC(C)C)NC(=O)[C@H](Cc2ccccc2)NC(=O)[C@H](CC(N)=O)NC(=O)[C@H](C)NC(=O)[C@H](C)NC(=O)[C@H](CC(C)C)NC(=O)CNC(=O)[C@H](C)NC(=O)[C@@H](NC(=O)[C@@H](N)CCCN=C(N)N)[C@@H](C)CC)[C@@H](C)CC)CSSC[C@@H](C(N)=O)NC(=O)[C@H](CCCCN)NC(=O)[C@H](CCCN=C(N)N)NC(=O)[C@H](C)NC1=O [RIAGLAANFLPQILCKIARKC]
- MIC [21]: 21.7 µM (≈ 49.9 µg/mL)
- MIC [22]: 21.7 µM (≈ 49.9 µg/mL)
- MIC (Escherichia coli MG1655): 10.9 µM (≈ 25 µg/mL)
- MIC [9]: > 43.5 µM
- MIC [10]: 10.9 µM (≈ 25 µg/mL)
- MIC [23]: 10.9 µM (≈ 25 µg/mL)
- MIC (Vibrio cholerae): 5.44 µM (≈ 12.5 µg/mL)

SMILES: CC[C@H](C)[C@H](NC(=O)[C@H](C)NC(=O)[C@H](CCCN=C(N)N)NC(=O)[C@H](C)NC(=O)[C@H](CC(C)C)NC(=O)[C@@H](N)Cc1ccc(O)cc1)C(=O)N[C@@H](CCCN=C(N)N)C(=O)N[C@@H](CCCN=C(N)N)C(=O)N[C@H](C(=O)N[C@@H](CC(C)C)C(=O)N[C@@H](C)C(=O)N[C@@H](CCCN=C(N)N)C(=O)N[C@@H](CC(C)C)C(=O)N[C@@H](CC(C)C)C(=O)N[C@@H](CC(C)C)C(=O)O)[C@@H](C)O [YLARAIRRTLARLLL]
- MIC [24]: 8.89 µM (≈ 16 µg/mL)
- MIC [25]: 17.8 µM (≈ 32 µg/mL)
- MIC [26]: 8.89 µM (≈ 16 µg/mL)
- MIC [27]: 2.22 µM (≈ 4 µg/mL)
- MIC [28]: 8.89 µM (≈ 16 µg/mL)
- MIC [29]: 8.89 µM (≈ 16 µg/mL)
- MIC [30]: 2.22 µM (≈ 4 µg/mL)
- MIC [31]: ≥ 35.6 µM
- MIC [32]: 17.8 µM (≈ 32 µg/mL)
- MIC [33]: 4.45 µM (≈ 8 µg/mL)
- MIC [34]: 17.8 µM (≈ 32 µg/mL)
- MIC [35]: 8.89 µM (≈ 16 µg/mL)
- MIC [36]: 17.8 µM (≈ 32 µg/mL)
- MIC [37]: ≥ 71.1 µM
- MIC [38]: ≥ 71.1 µM
- MIC [39]: ≥ 71.1 µM
- MIC [40]: ≥ 71.1 µM
- MIC [41]: 8.89 µM (≈ 16 µg/mL)
- MIC [42]: 17.8 µM (≈ 32 µg/mL)
- MIC [43]: 17.8 µM (≈ 32 µg/mL)
- MIC [44]: 4.45 µM (≈ 8 µg/mL)
- MIC [45]: 8.89 µM (≈ 16 µg/mL)
- MIC [46]: 8.89 µM (≈ 16 µg/mL)
- MIC [47]: 8.89 µM (≈ 16 µg/mL)
- MIC [48]: ≥ 35.6 µM
